Results reported in patent US7803930B2, “Antisense modulation of apolipoprotein B-expression” (Isis Pharmaceuticals, Inc., priority 2002, dated 2010).
In the oligonucleotide strings, read from the 5' end, every base follows the letter of its sugar. An asterisk marks phosphorothioate; unmarked linkages are phosphodiester. Other units and linkages are bracketed, terminal groups are in braces. A string of capitals states the bases alone. e = 2'-O-(2-methoxyethyl) (MOE); [5mC] = 5-methylcytosine; d = 2'-deoxy (DNA)

Key:
[1] = test system: human apolipoprotein(a) mRNA; experiment: Apolipoprotein(a) mRNA expression in primary human hepatocytes, real-time PCR; assay type: cell-based; conditions: 24 hours; for % Change in apolipoprotein(a) mRNA expression following antisense inhibition of apolipoprotein B: primary human hepatocytes; for expression of apolipoprotein(a) mRNA: human primary hepatocytes, 5, 10, 50 or 150 nM
Protocol: Primary human hepatocytes (InVitro Technologies, Baltimore, Md.), cultured and transfected as described herein, were treated with 5, 10, 50 or 150 nM of ISIS 271009 (SEQ ID NO: 319), 281625 (SEQ ID NO: 224), 301012 (SEQ ID NO: 247) or 301027 (SEQ ID NO: 262). Cells were also treated with 50 or 150 nM of the control oligonucleotides ISIS 113529 (SEQ ID NO: 859) or ISIS 13650 (SEQ ID NO: 806). Untreated cells served as a control. Following 24 hours of oligonucleotide treatment, apolipoprotein(a) mRNA expression was measured by quantitative real-time PCR as described in other examples herein.
Probes and primers to human apolipoprotein(a) were designed to hybridize to a human apolipoprotein(a) sequence, using published sequence information (GenBank accession number NM_005577.1, incorporated herein as SEQ ID NO: 860). For human apolipoprotein(a) the PCR primers were: […]
forward primer: […] (SEQ ID NO: 861)
reverse primer: TGCGTCTGAGCATTGCGT (SEQ ID NO: 862) and the PCR probe was: FAM-[…]-TAMRA (SEQ ID NO: 863) where FAM is the fluorescent dye and TAMRA is the quencher dye.
Data are the average of three experiments and are expressed as percent inhibition relative to untreated controls.

[2] = test system: Cynomolgous monkey apolipoprotein B mRNA; experiment: Apolipoprotein B mRNA in primary Cynomolgous monkey hepatocytes, real-time PCR; assay type: cell-based; conditions: for % Inhibition of apolipoprotein B mRNA: primary Cynomolgous monkey hepatocytes
Method in brief: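 Primary cynomolgus hepatocytes treated with antisense oligonucleotides at 10, 50, 150 or 300 nM (some sets 10–150 nM) for 24 or 48 h, depending on the set. mRNA quantified by real-time PCR using human apoB and GAPDH primers/probes. Values are percent inhibition normalized to untreated cells, averaged over 2–6 experiments.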

apolipoprotein B protein = experiment: Apolipoprotein B protein secreted from primary Cynomolgous monkey hepatocytes, ELISA; assay type: cell-based; conditions: for % Reduction of monkey apolipoprotein B protein secretion / secretion of apolipoprotein B protein (ELISA): primary Cynomolgous hepatocytes; for % Reduction in secreted apolipoprotein B protein: primary Cynomolgous monkey hepatocytes;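 for % Reduction in secreted apolipoprotein B protein: normalized to untreated control cells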
Method in brief: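 Primary cynomolgus hepatocytes treated with oligonucleotide at 150 and 300 nM, or 50 and 150 nM for some compounds; secreted apoB protein quantified by apoB-specific ELISA. Values are means of 3 experiments.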

[3] = Time course at two doses in female C57BL/6 mice (Example 49): AST and ALT levels; assay type: in vivo, mouse
Protocol: Female C57BL/6 mice were divided into two groups—one group receiving oligonucleotide treatment and control animals receiving saline treatment. After overnight fasting, mice were dosed intraperitoneally twice a week with saline or 25 mg/kg or 50 mg/kg of ISIS 281625 (SEQ ID NO: 224), ISIS 301012 (SEQ ID NO: 247), or ISIS 301027 (SEQ ID NO: 262). After 2 weeks, a blood sample was taken from the tail of the mice and evaluated for liver enzyme. After 4 weeks, and study termination, animals were sacrificed and evaluated for liver enzyme levels.

[4] = 150 nM (Table 49), "+" = secretion increased
[5] = 50 nM (Table 49), "+" = secretion increased
[6] = 25 mg/kg i.p. twice a week, 2 weeks
[7] = 25 mg/kg i.p. twice a week, 4 weeks
[8] = 50 mg/kg i.p. twice a week, 2 weeks
[9] = 50 mg/kg i.p. twice a week, 4 weeks
[10] = 25 or 50 mg/kg (either dose) i.p. twice a week, after 2 weeks
[11] = higher dose (50 mg/kg), after 4 weeks
[12] = lower dose (25 mg/kg), after 4 weeks

Row | Substance | % Change in apolipoprotein(a) mRNA expression following antisense inhibition of apolipoprotein B ([1]; 50 nM) | % Change in apolipoprotein(a) mRNA expression following antisense inhibition of apolipoprotein B ([1]; 150 nM) | % Inhibition of apolipoprotein B mRNA ([2]; 150 nM, 24 hours (Table 48)) [%] | % Reduction of monkey apolipoprotein B protein secretion (apolipoprotein B protein; [4]) [%] | % Change in apolipoprotein(a) mRNA expression following antisense inhibition of apolipoprotein B ([1]; 5 nM) | % Change in apolipoprotein(a) mRNA expression following antisense inhibition of apolipoprotein B ([1]; 10 nM) | ALT [3, 6] [IU/L] | AST [3, 6] [IU/L] | ALT [3, 7] [IU/L] | AST [3, 7] [IU/L] | ALT [3, 8] [IU/L] | AST [3, 8] [IU/L] | ALT [3, 9] [IU/L] | AST [3, 9] [IU/L] | AST and ALT levels [3, 10] | expression of apolipoprotein(a) mRNA [1] | other results
1 | 113529 (antisense e[5mC]*eT*e[5mC]*eT*eT*dA*d[5mC]*dT*dG*dT*dG*d[5mC]*dT*dG*dT*eG*eG*eA*e[5mC]*eA) [compound 113529] | +14% | −9% | 11 | 15 |  |  |  |  |  |  |  |  |  |  |  |  | % Inhibition of apolipoprotein B mRNA ([2]; 150 nM, 24 hours): 5%; % Inhibition of apolipoprotein B mRNA ([2]; 150 nM, 48 hours): 42%; % Inhibition of apolipoprotein B mRNA ([2]; 300 nM, 24 hours): 19%; % Inhibition of apolipoprotein B mRNA ([2]; 300 nM, 24 hours (Table 46)): 28%; % Inhibition of apolipoprotein B mRNA ([2]; 300 nM, 48 hours): 13%; % Reduction of monkey apolipoprotein B protein secretion (apolipoprotein B protein; 150 nM (Table 47)): 12%; % Reduction in secreted apolipoprotein B protein (apolipoprotein B protein; 150 nM, 24 hours): 11%; % Reduction in secreted apolipoprotein B protein (apolipoprotein B protein; 150 nM, 48 hours): 18%; % Reduction in secreted apolipoprotein B protein (apolipoprotein B protein; 300 nM, 24 hours): 12%; % Reduction in secreted apolipoprotein B protein (apolipoprotein B protein; 300 nM, 48 hours): 8%
2 | 271009 (antisense eG*e[5mC]*e[5mC]*eT*e[5mC]*dA*dG*dT*d[5mC]*dT*dG*d[5mC]*dT*dT*d[5mC]*eG*e[5mC]*eG*e[5mC]*e[5mC]) [compound 271009] | +25% | −47% | 69 | 26 | +70% | +31% |  |  |  |  |  |  |  |  |  |  | % Inhibition of apolipoprotein B mRNA ([2]; 10 nM, 24 hours (Table 48)): 42%; % Inhibition of apolipoprotein B mRNA ([2]; 50 nM, 24 hours (Table 48)): 66%; % Reduction of monkey apolipoprotein B protein secretion (apolipoprotein B protein; [5]): +30%
3 | 281625 (antisense eA*eG*eG*eT*eT*dA*d[5mC]*d[5mC]*dA*dG*d[5mC]*d[5mC]*dA*d[5mC]*dA*eT*eG*e[5mC]*eA*eG) [compound 281625] | −34% | +32% |  |  | −9% | −23% | 21.2 | 40.8 | 31.8 | 75 | 30.8 | 44.4 | 210.4 | 152.4 |  |  | % Inhibition of apolipoprotein B mRNA ([2]; 10 nM, 24 hours (Table 46), "+" = expression increased): +5%; % Inhibition of apolipoprotein B mRNA ([2]; 50 nM, 24 hours (Table 46)): 41%; % Inhibition of apolipoprotein B mRNA ([2]; 150 nM, 24 hours (Table 46), "+" = expression increased): 35%; % Inhibition of apolipoprotein B mRNA ([2]; 300 nM, 24 hours (Table 46)): 69%; % Reduction of monkey apolipoprotein B protein secretion (apolipoprotein B protein; 50 nM (Table 47)): 6%; % Reduction of monkey apolipoprotein B protein secretion (apolipoprotein B protein; 150 nM (Table 47)): 13%
4 | 301012 (eG*e[5mC]*e[5mC]*eT*e[5mC]*dA*dG*dT*d[5mC]*dT*dG*d[5mC]*dT*dT*d[5mC]*eG*e[5mC]*eA*e[5mC]*e[5mC]) [compound 301012] | +30% | +38% |  |  | +34% | +86% | 22.4 | 37.2 | 24.8 | 89.8 | 23.2 | 38.4 | 29.2 | 107.4 |  |  | % Inhibition of apolipoprotein B mRNA ([2]; 10 nM, 24 hours): 24%; % Inhibition of apolipoprotein B mRNA ([2]; 10 nM, 48 hours): 76%; % Inhibition of apolipoprotein B mRNA ([2]; 50 nM, 24 hours): 60%; % Inhibition of apolipoprotein B mRNA ([2]; 50 nM, 48 hours): 77%; % Inhibition of apolipoprotein B mRNA ([2]; 150 nM, 24 hours): 56%; % Inhibition of apolipoprotein B mRNA ([2]; 150 nM, 48 hours): 88%; % Inhibition of apolipoprotein B mRNA ([2]; 300 nM, 24 hours): 61%; % Inhibition of apolipoprotein B mRNA ([2]; 300 nM, 48 hours): 86%; % Reduction in secreted apolipoprotein B protein (apolipoprotein B protein; 150 nM, 24 hours): 31%; % Reduction in secreted apolipoprotein B protein (apolipoprotein B protein; 150 nM, 48 hours): 25%; % Reduction in secreted apolipoprotein B protein (apolipoprotein B protein; 300 nM, 24 hours): 10%; % Reduction in secreted apolipoprotein B protein (apolipoprotein B protein; 300 nM, 48 hours): 17%
5 | 301027 (eG*e[5mC]*eT*e[5mC]*eA*d[5mC]*dT*dG*dT*dA*dT*dG*dG*dT*dT*eT*eT*eA*eT*e[5mC]; antisense) [compound 301027] | −39% | −43% | 67 | 31 | −16% | −45% | 27.2 | 55.4 | 311.2 | 537.6 | 34.8 | 64 | 1194 | 1884 |  |  | % Inhibition of apolipoprotein B mRNA ([2]; 10 nM, 24 hours (Table 48)): 40%; % Inhibition of apolipoprotein B mRNA ([2]; 50 nM, 24 hours (Table 48)): 54%; % Reduction of monkey apolipoprotein B protein secretion (apolipoprotein B protein; [5]): 25%
6 | ISIS 281625: SEQ ID NO: 224, 2′-MOE gapmer targeted to human apolipoprotein B (antisense eA*eG*eG*eT*eT*dA*d[5mC]*d[5mC]*dA*dG*d[5mC]*d[5mC]*dA*d[5mC]*dA*eT*eG*e[5mC]*eA*eG) |  |  |  |  |  |  |  |  |  |  |  |  |  |  | remained close to those of saline | decreased | AST and ALT levels over saline treated animals [3, 11]: large increase; AST and ALT levels over saline treated animals [3, 12]: moderate increase; inhibition of apolipoprotein B mRNA expression ([2]; Cynomolgous monkey primary hepatocytes, 10, 50, 150 or 300 nM, 24 hours): in a dose-dependent manner; secretion of apolipoprotein B protein (ELISA) (apolipoprotein B protein; 50 and 150 nM (statement after Table 49)): decrease
7 | ISIS 301012: SEQ ID NO: 247, antisense oligonucleotide targeted to human apolipoprotein B (antisense GCCTCAGTCTGCTTCGCACC; chemistry not given here) |  |  |  |  |  |  |  |  |  |  |  |  |  |  | remained close to those of saline | did not inhibit | AST and ALT levels over saline treated animals [3, 11]: large increase; AST and ALT levels over saline treated animals [3, 12]: moderate increase; inhibition of apolipoprotein B mRNA expression ([2]; cynomolgous monkey primary hepatocytes, 10, 50, 150 or 300 nM): in a dose- and time-dependent manner; secretion of apolipoprotein B protein (ELISA) (apolipoprotein B protein; 150 and 300 nM): decrease
8 | ISIS 301027: SEQ ID NO: 262, 2′-MOE gapmer targeted to human apolipoprotein B (antisense eG*e[5mC]*eT*e[5mC]*eA*d[5mC]*dT*dG*dT*dA*dT*dG*dG*dT*dT*eT*eT*eA*eT*e[5mC]) |  |  |  |  |  |  |  |  |  |  |  |  |  |  | small increase | decreased | AST and ALT levels ([3]; either dose, after 4 weeks): huge increase; inhibition of apolipoprotein B mRNA expression ([2]; Cynomolgous monkey primary hepatocytes, 10, 50 and 150 nM, 24 hours): in a dose-dependent manner
